Laboratory results published in ChEMBL document CHEMBL1201862, “PubChem BioAssay data set” (2004).
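Test compounds were applied to cells in 96-well plates for 48 hours at 5 doses. GI50 = concentration required for 50% inhibition of growth.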 Active and inactive are the calls of the source. No stated cut-off is given here; in the data, active = GI50 up to about 1.1 µM and inactive = higher.

Experiments:
Assay in all cases: inhibition of tumour cell growth, NCI panel, 48 h
[1] = system: K562
[2] = system: SK-OV-3
[3] = system: BT-549
[4] = system: ACHN
[5] = system: HT-29
[6] = system: NCI-H522
[7] = system: SF-295
[8] = system: TK-10
[9] = system: RXF 393
[10] = system: HOP-62
[11] = system: UACC-257
[12] = system: SR
[13] = system: NCI/ADR-RES
[14] = system: HL-60
[15] = system: MOLT-4
[16] = system: OVCAR-8
[17] = system: MDA-MB-231
[18] = system: SF-539
[19] = system: COLO 205
[20] = system: MDA-MB-435

For `C=C(C)[C@@H]1CC[C@]2(C(=O)OC3OC(COC4OC(CO)C(OC5OC(C)C(O)C(O)C5O)C(O)C4O)C(O)C(O)C3O)CC[C@]3(C)[C@H](CC[C@@H]4[C@@]5(C)CC[C@H](O)[C@@](C)(CO)[C@@H]5CC[C@]43C)[C@@H]12` (stereo not given in full), the GI50 [1] was 802 nM (active), the GI50 [2] was 3.24 µM (inactive) and the GI50 [3] was 3.06 µM (inactive). The GI50 [4] was 2 µM (inactive), the GI50 [5] was 3.05 µM (inactive) and the GI50 [6] was 2.66 µM (inactive). The GI50 [7] was 1.27 µM (inactive), the GI50 [8] was 3.49 µM (inactive) and the GI50 [9] was 5.06 µM (inactive). For the same compound, the GI50 [10] was 3.61 µM (inactive), the GI50 [11] was 4.63 µM (inactive) and the GI50 [12] was 755 nM (active). For the same compound, the GI50 [13] was 2.91 µM (inactive), the GI50 [14] was 98.6 nM (active) and the GI50 [15] was 390 nM (active). For the same compound, the GI50 [16] was 3.97 µM (inactive), the GI50 [17] was 3.56 µM (inactive) and the GI50 [18] was 2.58 µM (inactive). The GI50 [19] was 1.63 µM (inactive) and the GI50 [20] was 3.51 µM (inactive).

For `COC(=O)[C@]12CCC(C)(C)C[C@H]1[C@H]1C(=O)C=C3[C@@]4(C)C=C(C#N)C(=O)C(C)(C)[C@@H]4CC[C@@]3(C)[C@]1(C)CC2` [BARDOXOLONE METHYL], the GI50 [1] was 20.5 nM (active), the GI50 [2] was 0.126 µM (active) and the GI50 [3] was 0.0339 µM (active). The GI50 [4] was 0.0285 µM (active), the GI50 [5] was 0.0552 µM (active) and the GI50 [6] was 0.0728 µM (active). For the same compound, the GI50 [7] was 0.0289 µM (active), the GI50 [8] was 0.0269 µM (active) and the GI50 [9] was 0.0247 µM (active). The GI50 [10] was 0.0268 µM (active), the GI50 [11] was 0.0455 µM (active) and the GI50 [12] was 24.5 nM (active). The GI50 [13] was 0.0188 µM (active), the GI50 [14] was < 13.8 nM (active) and the GI50 [15] was < 10 nM (active). For the same compound, the GI50 [16] was 0.0199 µM (active), the GI50 [17] was 0.0301 µM (active) and the GI50 [18] was 0.0419 µM (active). For the same compound, the GI50 [19] was 0.0199 µM (active) and the GI50 [20] was 0.0164 µM (active).
